Source: US4902720A (priority 1988, dated 1990)
Read-outs that look alike come from different tables or passages of the source.

Key:
[1] = tested on: RK-13, Vero cells, and WISH cells; settings: cultures with vs without TEAC
Protocol: To determine the toxicity level of the drug, all three cell lines--RK-13, Vero cells, and WISH cells--were used. In the toxicity experiments, the effect of the drug on the uninfected cell for a range of periods of time was determined. Accordingly, cultures were incubated with and without the drug. The time of exposure was from one to seven hours. A comparison was then made between the drug treated cultures and the control cultures. After each period of incubation, the cells were washed and fresh media was added to the cells. The cell viability was then determined by dividing these cultures and having them grow into new cell cultures.

HSV-1 and HSV-2 = type: cell-based
HSV-1 (McKrae strain) [2] = settings: for No. of Plaques: virus controls 270, 270, 252
Protocol: All cultures were incubated at 37° C. in a 5% CO2 humidified atmosphere. The cultures were stained with crystal violet to aid in counting the plaque.

[3] = tested on: Flow 1000 cells (foreskin cells); settings: 25 mg/ml, 48 hours, 37° C.
Protocol: (§1) Healthy confluent monolayer cell cultures were overlaid with 1 ml of the drug and incubated for 48 hours at 37° C. and then stained. Cell cultures with maintenance media were used as controls.

RK-13 cells = settings: 25 mg/ml, 48 hours, 37° C.
Protocol: as §1

Vero cells = settings: 25 mg/ml, 48 hours, 37° C.
Protocol: as §1

HSV-1 (McKrae strain) [4] = settings: 20 mg/ml
Protocol: In experiment 1K, cultures were infected with the McKrae strain of HSV-1 at a high multiplicity of infection. […] At designated times, the cultures were harvested. The supernatant fluid and the cells were kept separate to assay for viruses released in the supernatant fluid and also that present in the cells. Both supernatant fluid and the cells were frozen immediately at -85° C. These samples were then assayed for infectious particles on susceptible cells.

HSV-1 (F strain) = settings: 2.5 mg/ml TEAC
HSV-1 [5] = settings: 20 mg/ml TEAC, virus control 1398
HSV-1 (McKrae strain) [6] = settings: Virus and Drug (20 mg/ml)
HSV-1 (McKrae strain) [7] = tested on: HSV-1 (McKrae strain)
HSV-1 [8] = assay: microbe, parasite or virus in culture; settings: read-out: % Reduction

CC[N+](CC)(CC)CC.[Cl-] [TEAC, tetraethylammonium chloride]
rate of growth vs cultures without TEAC [1]: no difference in the rate of growth | permissiveness of cells to virus (HSV-1 and HSV-2; TEAC added before viral inoculation, time and dosage dependent): rendered the cells non-permissive to the virus and no plaque formed | in vitro replication of HSV-1 and HSV-2 (HSV-1 and HSV-2; summary): inhibited the in vitro replication of HSV-1 and HSV-2 | plaque number and size (HSV-1 and HSV-2; summary): not only by the reduced number of plaque, but also by their reduced size | No. of Plaques (HSV-1 (McKrae strain) [2]; 3.125 mg/ml): 247 | No. of Plaques (HSV-1 (McKrae strain) [2]; 6.250 mg/ml): 286 | No. of Plaques (HSV-1 (McKrae strain) [2]; 12.500 mg/ml): 300 | appearance of monolayer (HSV-1 (McKrae strain) [2]; 25 mg/ml): thinned out appearance | No. of Plaques (HSV-1 (McKrae strain) [2]; 25.000 mg/ml): 0 | effectiveness in plaque inhibition (HSV-1 (McKrae strain) [2]; concentrations below 25 mg/ml): not significantly effective in achieving plaque inhibition | toxicity [3]: toxicity | toxicity (RK-13 cells): toxicity | toxicity (Vero cells): slight toxicity | virus yield, supernatant (HSV-1 (McKrae strain) [4]; 6 hours P.I., dilution 10^-1, control 3): 0 PFU/m | virus yield, cell (HSV-1 (McKrae strain) [4]; 6 hours P.I., dilution 10^-1, control 7): 2 PFU/m | virus yield, supernatant (HSV-1 (McKrae strain) [4]; 6 hours P.I., dilution 10^-2, control 1): 0 PFU/m | virus yield, cell (HSV-1 (McKrae strain) [4]; 6 hours P.I., dilution 10^-2, control 7): 5 PFU/m | virus yield, supernatant (HSV-1 (McKrae strain) [4]; 6 hours P.I., dilution 10^-3, control 0): 0 PFU/m | virus yield, cell (HSV-1 (McKrae strain) [4]; 6 hours P.I., undiluted (Und.), control 16): 12 PFU/m | virus yield, cell (HSV-1 (McKrae strain) [4]; 10 hours P.I., dilution 10^-1, control 12): 3 PFU/m | virus yield, supernatant (HSV-1 (McKrae strain) [4]; 10 hours P.I., dilution 10^-1, control 22): 0 PFU/m | virus yield, cell (HSV-1 (McKrae strain) [4]; 10 hours P.I., dilution 10^-2, control 2): 0 PFU/m | virus yield, supernatant (HSV-1 (McKrae strain) [4]; 10 hours P.I., dilution 10^-2, control 7): 0 PFU/m | virus yield, supernatant (HSV-1 (McKrae strain) [4]; 10 hours P.I., dilution 10^-3, control 0): 0 PFU/m | virus yield, cell (HSV-1 (McKrae strain) [4]; 10 hours P.I., undiluted (Und.), control 48): 13 PFU/m | virus yield, supernatant (HSV-1 (McKrae strain) [4]; 20 hours P.I., dilution 10^-1, control 91): 0 PFU/m | virus yield, cell (HSV-1 (McKrae strain) [4]; 20 hours P.I., dilution 10^-1, control W.O. (wiped out)): 5 PFU/m | virus yield, supernatant (HSV-1 (McKrae strain) [4]; 20 hours P.I., dilution 10^-2, control 10): 0 PFU/m | virus yield, cell (HSV-1 (McKrae strain) [4]; 20 hours P.I., dilution 10^-2, control W.O. (wiped out)): 0 PFU/m | virus yield, supernatant (HSV-1 (McKrae strain) [4]; 20 hours P.I., dilution 10^-3, control 0): 0 PFU/m | virus yield, cell (HSV-1 (McKrae strain) [4]; 20 hours P.I., undiluted (Und.), control W.O. (wiped out)): 42 PFU/m | virus yield, supernatant (HSV-1 (McKrae strain) [4]; 24 hours P.I., dilution 10^-1, control 107): 0 PFU/m | virus yield, cell (HSV-1 (McKrae strain) [4]; 24 hours P.I., dilution 10^-1, control W.O. (wiped out)): 32 PFU/m | virus yield, supernatant (HSV-1 (McKrae strain) [4]; 24 hours P.I., dilution 10^-2, control 18): 0 PFU/m | virus yield, cell (HSV-1 (McKrae strain) [4]; 24 hours P.I., dilution 10^-2, control W.O. (wiped out)): 10 PFU/m | virus yield, supernatant (HSV-1 (McKrae strain) [4]; 24 hours P.I., dilution 10^-3, control 2): 0 PFU/m | virus yield, cell (HSV-1 (McKrae strain) [4]; 24 hours P.I., undiluted (Und.), control W.O. (wiped out)): 58 PFU/m | virus yield, supernatant (HSV-1 (McKrae strain) [4]; 28 hours P.I., dilution 10^-1, control 190): 0 PFU/m | virus yield, cell (HSV-1 (McKrae strain) [4]; 28 hours P.I., dilution 10^-1, control W.O.): TMTC | virus yield, supernatant (HSV-1 (McKrae strain) [4]; 28 hours P.I., dilution 10^-2, control 58): 0 PFU/m | virus yield, cell (HSV-1 (McKrae strain) [4]; 28 hours P.I., dilution 10^-2, control W.O. (wiped out)): 15 PFU/m | virus yield, supernatant (HSV-1 (McKrae strain) [4]; 28 hours P.I., dilution 10^-3, control 7): 0 PFU/m | virus yield, cell (HSV-1 (McKrae strain) [4]; 28 hours P.I., undiluted (Und.), control W.O.): W.O. | size of the plaque vs control (HSV-1 (F strain)): appreciably smaller | average number of plaque (HSV-1 (F strain); 1 ml + 4 ml media, after adsorption, control 488.5): 75.5 plaque | PFU/ml (HSV-1 [5]; removed 4 hours P.I.): 1042 PFU/ml | PFU/ml (HSV-1 [5]; removed 6 hours P.I.): 596 PFU/ml | PFU/ml (HSV-1 [5]; removed 8 hours P.I.): 436 PFU/ml | PFU/ml (HSV-1 [5]; removed 10 hours P.I.): 163 PFU/ml | cells exhibiting CPE, area of infection per field (HSV-1 (McKrae strain) [6]; 6 hours P.I., virus control 1/4): 1/6 | cells exhibiting CPE, area of infection per field (HSV-1 (McKrae strain) [6]; 30 hours P.I., virus control 1/2): scattered | number of cells containing intranuclear dense bodies vs control (HSV-1 (McKrae strain) [7]; 6 hours post infection): no striking difference | No. of cells with internuclear dense bodies (HSV-1 (McKrae strain) [7]; TEAC treated, 24 hours P.I., 300 cells examined, control 0 of 50): 12 | No. of cells with virus particles (HSV-1 (McKrae strain) [7]; TEAC treated, 24 hours P.I., 300 cells examined, control 50 of 50): 8 | Total % (HSV-1 (McKrae strain) [7]; TEAC treated, 24 hours P.I., control 100%): 6% | size of nucleocapsids (HSV-1 (McKrae strain) [7]; TEAC-treated cells, 24 hours post infection): about 99.6 A | appearance of cell layers (vaccinia): thin | plaque (vaccinia): did not have any plaque | sciatic pain (HSV type 2; Patient A, 2.8 cc (100 mg/cc), first infusion, immediately after): cessation of sciatic pain | pain or lesions (HSV type 2; Patient A, about five weeks after third infusion 3.4 cc): no further pain or lesions | time without lesions or pain (HSV type 2; Patient A, after first infusion): 52 to 53 days | time until spots were gone (HSV type 2; Patient A, after third infusion): 24 h | symptoms (HSV type 2; Patient A, approximately three weeks after first infusion): asymptomatic | lesions or pain at last contact (HSV type 2; Patient A, eighteen months after the initial exam): no further lesions or pain | time to disappearance of vesicles (HSV type 2; Patient A, recurrence after first infusion): two to three | sciatic nerve pain (HSV type 2; Patient A, second infusion 3.2 cc): sciatic nerve pain disappeared during the infusion | clearance (HSV type 2; Patient E, a week after second infusion, 2 pinpoint lesions remaining): 99% | new pinpoint lesions (HSV type 2; Patient E, after third infusion): 5-6 pinpoint lesions | lesions (HSV type 2; Patient E, third infusion 5 cc, 5 days later): all lesions had cleared up | general condition (HSV type 2; Patient F, about 3 weeks after third infusion): completely cleared up | lesion (HSV type 2; Patient F, first infusion 3.8 cc, next day): improved | time to clearing of lesion (HSV type 2; Patient F, second infusion 4.5 cc): 48 h | time to clearing of lesions (HSV type 2; Patient F, third infusion 4.0 cc): ≤ 4 days | time until lesions were gone (HSV type 2; Patient G, first infusion 4.3 cc): ≤ 48 h | long term outcome (HSV type 2; Patient J, 12 months later, ointment): the problem has resolved itself completely | severity of subsequent attacks (HSV type 2; Patient K, after second infusion): milder severity | anticipated massive attack (HSV type 2; Patient K, second infusion 3.4 cc, six weeks later): the attack had not occurred | crusting (HSV type 1; Patient L, 2.9 cc (5.5 mg/kg), 7th day after treatment): the crusting had all disappeared | time to clearing of lesions (HSV type 1; Patient M, 1% TEAC in hydrophillic ointment base, topical, five days later): cleared in a shorter time period than usual | lesion (HSV type 1; Patient M, ointment resumed two months later, after three days): the lesion had not spread and had now crusted | drug related effects (Patient A, 2.8 cc infusion): some blurred vision and slight dizziness on rising to the seated position | drug related effects (Patient A, 3.2 cc infusion): some blurred vision | drug related effects (Patient B, 3.7 cc (5 mg/kg) infusion): blurred vision, dryness of the mouth, and unsteady gait | time to cessation of drug related effects (Patient B, after cessation of infusion): 10 to 15 min | drug related effects (Patient C, 3.85 cc (5 mg/kg)): slightly blurred vision | drug related effects (Patient D, 2.8 cc (5 mg/kg)): dry mouth and transient blurred vision | drug related effects (Patient E, 4.8 cc (5 mg/kg)): slightly blurred vision | drug related effects (Patient J, 3.6 cc (5.5 mg/kg)): some blurred vision | drug related effects (Patient K, 3.1 cc and 3.4 cc): some blurred vision | drug related effects (Patient L, 2.9 cc (5.5 mg/kg)): some blurred vision | time patient felt badly following treatment (Patient L, 2.9 cc (5.5 mg/kg)): 24 to 36 h | inhibition at 20000 µg/mL (HSV-1 [8]; Human alphaherpesvirus 1, 4 h): 25% | inhibition at 20000 µg/mL (HSV-1 [8]; Human alphaherpesvirus 1, 6 h): 57% | inhibition at 20000 µg/mL (HSV-1 [8]; Human alphaherpesvirus 1, 8 h): 69% | inhibition at 20000 µg/mL (HSV-1 [8]; Human alphaherpesvirus 1, 10 h): 88%
